Measurements reported in ChEMBL document CHEMBL1649527, “Daptomycin rapidly penetrates a Staphylococcus epidermidis biofilm” (Antimicrob Agents Chemother, 2009).

What was measured:
[1] = system: Staphylococcus epidermidis; assay: (§1) Permeability of rhodamine-tagged compound across Staphylococcus epidermidis RP62A biofilms with 207 micrometer radial dimensions and 97 micrometer orthogonal dimensions assessed as time required for fluorescence intensity in centre of biofilm cluster to reach 50% of steady state maximum bulk fluid fluorescence intensity; type: ADME, organism-based; settings: in vivo
[2] = system: Staphylococcus epidermidis; assay: as §1, with “217” for “207”, “115” for “97”; type: ADME, organism-based; settings: in vivo
[3] = Aqueous diffusion coefficient of rhodamine-tagged compound at 23 degC by time lapse confocal scanning microscopy; type: physicochemical; settings: buffer
[4] = system: Staphylococcus epidermidis; assay: Permeability of Bodipy-tagged compound across Staphylococcus epidermidis RP62A biofilms assessed as diffusion coefficient at 23 degC by time lapse confocal scanning microscopy; type: ADME, organism-based; settings: in vivo
[5] = system: Staphylococcus epidermidis; assay: as §1, with “Bodipy-tagged” for “rhodamine-tagged”, “278” for “207”, “168” for “97”; type: ADME, organism-based; settings: in vivo
[6] = system: Staphylococcus epidermidis; assay: as §1, with “94” for “207”, “63” for “97”; type: ADME, organism-based; settings: in vivo
[7] = system: Staphylococcus epidermidis; assay: as §1, with “Bodipy-tagged” for “rhodamine-tagged”, “223” for “207”, “153” for “97”; type: ADME, organism-based; settings: in vivo
[8] = system: Staphylococcus epidermidis; assay: Permeability of unlabeled compound across Staphylococcus epidermidis RP62A biofilms assessed as diffusion coefficient at 23 degC by time lapse confocal scanning microscop; type: ADME, organism-based; settings: in vivo
[9] = Aqueous diffusion coefficient of Bodipy-tagged compound at 23 degC by time lapse confocal scanning microscopy; type: physicochemical; settings: buffer
[10] = system: Staphylococcus epidermidis; assay: as §1, with “Bodipy-tagged” for “rhodamine-tagged”, “181” for “207”, “103” for “97”; type: ADME, organism-based; settings: in vivo
[11] = system: Staphylococcus epidermidis; assay: Permeability of rhodamine-tagged compound across Staphylococcus epidermidis RP62A biofilms assessed as diffusion coefficient at 23 degC by time lapse confocal scanning microscopy; type: ADME, organism-based; settings: in vivo

Structure (SMILES): CCCCCCCCCC(=O)N[C@@H](Cc1c[nH]c2ccccc12)C(=O)N[C@H](CC(N)=O)C(=O)N[C@@H](CC(=O)O)C(=O)N[C@@H]1C(=O)NCC(=O)N[C@@H](CCCN)C(=O)N[C@@H](CC(=O)O)C(=O)N[C@H](C)C(=O)N[C@@H](CC(=O)O)C(=O)NCC(=O)N[C@H](CO)C(=O)N[C@@H]([C@H](C)CC(=O)O)C(=O)N[C@@H](CC(=O)c2ccccc2N)C(=O)O[C@@H]1C
- Time [1]: 40 s
- Time [2]: 140 s
- D [3]: 1.78 ×10⁻⁶ cm2/s
- D [4]: 5.2 ×10⁻⁷ cm2/sec
- Time [5]: 210 s
- Time [6]: 26 s
- Time [7]: 60 s
- D [8]: 0.78 ×10⁻⁶ cm2/s
- D [9]: 1.73 ×10⁻⁶ cm2/s
- Time [10]: 67 s
- D [11]: 4.7 ×10⁻⁷ cm2/sec
